The values below come from PubChem BioAssay (NCI).

Holding throughout (test): NCI anticancer screen, dose series, 48 h
Assay [1] concerns U251 CNS.
Assay [2] has as its system HCC-2998 colon.
The test system of assay [3] is OVCAR-5 ovarian.
In assay [4] the test system is SF-295 CNS.
Assay [5] has as its system HCT-116 colon.
The subject of assay [6] is SF-539 CNS.
Assay [7] relates to OVCAR-4 ovarian.
The test system of assay [8] is RXF 393 renal.
For assay [9], the system named is UACC-62 melanoma.
The test system of assay [10] is ACHN renal.

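Interpolation was linear, between the two tested concentrations surrounding the appropriate level; five concentrations were tested over 48 hours in 96-well plates. GI50: concentration for 50% inhibition of growth. TGI is the concentration that stops growth completely.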 Some results are limits rather than exact numbers.

On to `ClC1(Cl)C2CCOC21n1cnc2ccccc21` (stereo not drawn), for which the TGI in assay [1], in assay [2], in assay [3], in assay [4], in assay [5] and in assay [6] was greater than 100 µM throughout. The TGI in assay [7], in assay [8] and in [9] was greater than 100 µM throughout.

Regarding `Cc1nc2c(ccc3[nH]c4ccccc4c32)s1`, the TGI in assay [1] was 54.3 µM; in [2] it was 30.2 µM; in assay [3], greater than 100 µM; in assay [10] it was greater than 100 µM; in assay [5], 37.2 µM; in [6], greater than 100 µM. Further, the figures for the TGI in assay [7], in [8] and in assay [9] were greater than 100 µM, greater than 100 µM and 41.2 µM, respectively.

Consider `O=C1CSC2(CC(/C=C/c3ccccc3[N+](=O)[O-])=NN2c2cccc(S(=O)(=O)O)c2)N1c1nc2ccccc2s1` (stereo not drawn), for which the TGI in assay [1] is 33.6 µM; in assay [2], greater than 75 µM; in assay [3], 39.9 µM; in assay [10], 44.2 µM; in assay [5], greater than 75 µM; in [6], greater than 75 µM. Also, the TGI was 35.3 µM in [7], greater than 75 µM in assay [8] and 29 µM in assay [9].

On to `O=C(O)c1cc2sc(C(=O)O)cc2s1`, for which the TGI in assay [1], in [3], in [4], in assay [5], in assay [6] and in assay [7] was greater than 100 µM in each case. For the same compound, the TGI in [8] and in assay [9] was greater than 100 µM each time.

For the compound `COC(=O)Cc1c(-c2c(CC(=O)OC)c3ccccc3n2C2OC(COC3OC(COC(C)=O)C(OC(C)=O)C(OC(C)=O)C3OC(C)=O)C(O)C(O)C2O)[nH]c2ccccc12` (stereo not drawn), the TGI in assay [1], in assay [3], in assay [4], in assay [10], in [5] and in assay [6] was greater than 100 µM each time. The compound further yielded a TGI in [9] greater than 100 µM.

Consider `C/C(=N\Nc1nc2ccccc2[nH]1)c1ccc2ccccc2n1`, for which the TGI in [1] was 14.3 µM; in assay [3] it was 10 µM; in assay [4], 8.29 µM; in [10] it was 24.2 µM; in assay [5], 7.48 µM; in [6] it was 20.1 µM. The TGI is 10.8 µM in assay [7], 13.5 µM in assay [8] and 9.25 µM in assay [9].

On to `O=[N+]([O-])c1ccc(N/N=C\c2ccc(O)cc2O)nc1`, for which the GI50 was 2.08 µM in assay [1]; 3.94 µM in assay [2]; 5.68 µM in [3]; 2.96 µM in assay [4]; 0.599 µM in assay [10]; 2.11 µM in assay [5]. Moreover, the GI50 in [6] is 3.07 µM; in assay [7], 1.11 µM. Also, the TGI in [1] is greater than 100 µM; in [2], greater than 100 µM; in assay [3] it was greater than 100 µM; in assay [4], greater than 100 µM; in assay [10], 21.3 µM; in [5], greater than 100 µM. The TGI in assay [6] and in assay [7] was greater than 100 µM in each case.

For the compound `COC(=O)c1cc(OCc2cc(OCc3ccc(Br)cc3)cc(OCc3ccc(Br)cc3)c2)cc(OCc2cc(OCc3ccc(Br)cc3)cc(OCc3ccc(Br)cc3)c2)c1`, the TGI in assay [1], in assay [2], in assay [3], in assay [4], in assay [10] and in assay [5] was greater than 100 µM in each case. For the same compound, the TGI in [6], in [7] and in [9] was greater than 100 µM throughout.

As for `C=C(C)[C@H]1C=C[C@@H](OC(C)=O)[C@@]2(COC(C)=O)[C@H](OC(=O)CCC)[C@H]3[C@@H](OC(C)=O)[C@@H](C)C[C@]3(O)C(=O)[C@@](C)(OC(C)=O)[C@H]12`, the TGI is greater than 100 µM in [1]; 86.5 µM in assay [2]; greater than 100 µM in assay [3]; greater than 100 µM in assay [10]; greater than 100 µM in [5]; greater than 100 µM in assay [7]. The TGI in assay [8] and in [9] was greater than 100 µM each time.

As to `COC1=C2C[C@](OC)(C#CC=CC#CC2O)CC1(C)C` (stereo partly drawn), the TGI in [1], in assay [2], in assay [3], in assay [4], in assay [10] and in assay [5] was greater than 100 µM each time. Besides, the TGI in [6], in assay [8] and in assay [9] was greater than 100 µM throughout.

With `O=CC1C(=O)Nc2nc3ccccc3n2C1c1ccccc1` (stereo not drawn), the TGI was found to be 29.1 µM in assay [1]; 95.7 µM in assay [3]; 43.8 µM in [4]; 42.7 µM in assay [10]; 24.9 µM in assay [5]; 44.6 µM in assay [6]. The TGI in assay [7] was found to be 80.3 µM; in [8], 16 µM; in assay [9], 31.9 µM.

For `COc1cc2oc(=O)cc(C)c2c(OC)c1OC`, the TGI in assay [1], in assay [3], in assay [4], in assay [10], in [5] and in assay [7] was greater than 100 µM each time. For the same compound, the TGI in assay [9] is greater than 100 µM.

With `CN1CCN2CCN(C)CCN(CC1)CC2`, the TGI in assay [1], in assay [3], in [4], in [10], in assay [5] and in assay [6] was greater than 100 µM each time. Also, the TGI in [7], in [8] and in assay [9] was greater than 100 µM throughout.

Take `CSc1nc(NC2OC(CO)C(O)C(O)C2O)c(N)c(=O)[nH]1` (stereo not drawn): the TGI in [1], in assay [2], in assay [3], in assay [4], in assay [5] and in [6] was greater than 100 µM in each case. Besides, the TGI in assay [7], in [8] and in assay [9] was greater than 100 µM each time.

Take `O=C(CN1CCOCC1)c1ccc2c(c1)oc(=O)n2CCN1CCCCC1`: the TGI in [1], in assay [3], in assay [4], in assay [10], in assay [5] and in assay [6] was greater than 100 µM in each case. Also, the TGI in [8] and in assay [9] was greater than 100 µM in each case.

As to `COc1cc(CNC(=O)CCCCCCCCCCSC#N)ccc1O`, the TGI in assay [1] is 34.1 µM; in [2], greater than 100 µM; in assay [3] it was 85.8 µM; in assay [4] it was 37.4 µM; in [5], 28.1 µM; in assay [6], 37.1 µM. Moreover, the figures for the TGI in [7] and in assay [8] were 57.6 µM and 21.9 µM, respectively.

As to `COc1ccc(Nc2cnc3cc(N)ccc3n2)cc1OC`, the TGI in assay [1], in [2], in assay [3], in assay [4], in assay [10] and in assay [5] was greater than 100 µM in each case. Moreover, the TGI in [8] and in assay [9] was greater than 100 µM in each case.

Consider `COC(=O)CC(c1ccccc1)C(C#N)(OP1(=O)OC(c2ccccc2)C(C)N1C)c1ccccc1` (stereo not drawn), for which the TGI in [1], in assay [2], in [3], in assay [4], in [10] and in assay [5] was greater than 100 µM each time. Moreover, the TGI in [7], in assay [8] and in [9] was greater than 100 µM each time.

For `CCN(CC)C(=O)N1CN(c2ccccc2)C2(CCN(CCCC3(c4ccc(F)cc4)OCCO3)CC2)C1=O`, the TGI is 30.2 µM in assay [1]; 28.7 µM in assay [2]; 41.3 µM in assay [4]; 23.9 µM in [5]; 32 µM in [6]; greater than 100 µM in assay [7]. Besides, the results for the TGI in assay [8] and in assay [9] were 27.8 µM and 34.9 µM, respectively.

Turning to `COc1cc(/C=C2\CCCC3=C2N=C2SC=NN2C3c2cc(OC)c(OC)c(OC)c2)cc(OC)c1OC` (stereo not drawn), the GI50 is 1.88 µM in [10]; 1.76 µM in assay [5]; 2.9 µM in assay [6]; 2.2 µM in assay [8]; 1.68 µM in assay [9]. The TGI in assay [10] was 3.74 µM; in [5], 3.41 µM; in [6] it was greater than 100 µM; in assay [8] it was 4.74 µM; in assay [9] it was 3.66 µM.

Regarding `O=C(O)Cc1ccc(-n2nnc3c(=O)[nH][nH]c(=O)c32)cc1`, the TGI in assay [1], in [2], in assay [3], in assay [4], in assay [10] and in assay [5] was greater than 100 µM throughout. In [7], this compound returned a TGI greater than 100 µM.

With `Cc1cc(NS(=O)(=O)c2ccc(N=Nc3c(Nc4ccccc4)nn(-c4ccc(S(=O)(=O)Nc5ccncn5)cc4)c3C)cc2)no1`, the TGI in assay [1], in [2], in assay [3], in assay [4], in assay [10] and in [5] was greater than 100 µM in each case. For the same compound, the TGI in assay [6], in [7] and in assay [9] was greater than 100 µM throughout.

Consider `O=c1ccc2c(Cl)sc(Cl)c2[nH]1`, for which the TGI in assay [1], in assay [2], in [3], in assay [4], in assay [10] and in assay [5] was greater than 100 µM throughout. For the same compound, the TGI in [7], in assay [8] and in assay [9] was greater than 100 µM in each case.

In the case of `COc1ccc(/C=C2\NC(=S)N(CN3CCOCC3)C2=O)cc1`, the TGI in assay [1], in [3], in [4], in assay [10], in [5] and in assay [7] was greater than 100 µM in each case. In assay [9], this compound registered a TGI greater than 100 µM.

Turning to `FC1(F)SC2CCCCCCCCCCC2C1(F)F` (stereo not drawn), the TGI in assay [1] is 63.6 µM; in assay [3], greater than 100 µM; in assay [4], greater than 100 µM; in assay [10], 73.8 µM; in assay [5], 37.1 µM; in assay [7] it was greater than 100 µM. The TGI was 54 µM in [8] and greater than 100 µM in assay [9].

Regarding `Cc1cn(C2CC(/[N+]([O-])=N\Nc3ccc([N+](=O)[O-])cc3)C(CO)O2)c(=O)[nH]c1=O` (stereo not drawn), the TGI in [1], in [2], in [3], in assay [4], in assay [10] and in assay [5] was greater than 100 µM throughout. For the same compound, the TGI in assay [6], in assay [8] and in assay [9] was greater than 100 µM each time.

As for `CC(C)N=C(NC#N)NS(=O)(=O)c1cnccc1NC1CCCCCCC1`, the TGI in assay [1], in assay [2], in [3], in [4], in assay [10] and in assay [5] was greater than 100 µM in each case. The TGI in assay [7], in assay [8] and in [9] was greater than 100 µM in each case.

For the compound `COc1ccccc1N1C(=O)/C(=C\c2ccccc2)SC1c1cc(OC)c(OC)c(OC)c1` (stereo not drawn), the TGI was 74.2 µM in assay [1]; greater than 100 µM in assay [2]; greater than 100 µM in assay [3]; greater than 100 µM in [4]; greater than 100 µM in assay [10]; greater than 100 µM in assay [5]. Besides, the TGI in assay [7] and in [9] was greater than 100 µM each time.

On to `NCCCCNCCCNC(=O)c1csc(-c2nc(CCN)sc2Cl)n1`, for which the TGI in [1], in [2], in assay [3], in [4], in assay [10] and in assay [5] was greater than 100 µM in each case. Besides, the TGI in assay [6], in assay [8] and in assay [9] was greater than 100 µM throughout.
